Results taken from ChEMBL document CHEMBL1909046, “DrugMatrix in vitro pharmacology data”.

Columns and labels:
[1] = DRUGMATRIX: Glutamate, NMDA, Phencyclidine radioligand binding (ligand: [3H] TCP); assay type: cell membranes, Rattus norvegicus, Wistar, Cerebral cortex, Membrane; conditions: Not Active = under 50% inhibition at 10 µM
[2] = target: Tyrosine-protein kinase Fyn (Homo sapiens, UniProt P06241); test: biochemical; assay type: cell-based, Insect cells; conditions: insect cells;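 further: enzymatic inhibition of Fyn kinase activity measured with Poly(Glu:Tyr) as the phosphorylation substrate; in other assays of this panel Not Active means under 50% inhibition at 10 µM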
Chain of Tyrosine-protein kinase Fyn (P06241 whole entry): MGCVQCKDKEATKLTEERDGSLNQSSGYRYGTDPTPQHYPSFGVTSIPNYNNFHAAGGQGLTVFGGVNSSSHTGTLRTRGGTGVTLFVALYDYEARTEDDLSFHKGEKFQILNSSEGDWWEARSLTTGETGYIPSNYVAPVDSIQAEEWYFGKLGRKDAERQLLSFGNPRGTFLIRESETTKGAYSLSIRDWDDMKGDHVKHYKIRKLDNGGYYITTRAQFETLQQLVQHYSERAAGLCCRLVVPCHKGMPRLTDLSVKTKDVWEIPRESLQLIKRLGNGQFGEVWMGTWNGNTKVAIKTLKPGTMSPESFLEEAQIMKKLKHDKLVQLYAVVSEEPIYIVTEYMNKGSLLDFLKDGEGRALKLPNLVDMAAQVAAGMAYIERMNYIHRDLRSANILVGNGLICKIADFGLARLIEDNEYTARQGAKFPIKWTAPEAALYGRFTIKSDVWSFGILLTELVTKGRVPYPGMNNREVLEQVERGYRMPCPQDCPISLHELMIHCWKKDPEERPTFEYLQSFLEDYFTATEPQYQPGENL

[3] = target: Beta-3 adrenergic receptor (Homo sapiens, UniProt P13945); test: DRUGMATRIX: Adrenergic beta3 radioligand binding (ligand: [125I] Cyanopindolol); assay type: cell membranes, HEK293, Membrane; conditions: hek293; Not Active = under 50% inhibition at 10 µM
Chain of Beta-3 adrenergic receptor (P13945 whole entry): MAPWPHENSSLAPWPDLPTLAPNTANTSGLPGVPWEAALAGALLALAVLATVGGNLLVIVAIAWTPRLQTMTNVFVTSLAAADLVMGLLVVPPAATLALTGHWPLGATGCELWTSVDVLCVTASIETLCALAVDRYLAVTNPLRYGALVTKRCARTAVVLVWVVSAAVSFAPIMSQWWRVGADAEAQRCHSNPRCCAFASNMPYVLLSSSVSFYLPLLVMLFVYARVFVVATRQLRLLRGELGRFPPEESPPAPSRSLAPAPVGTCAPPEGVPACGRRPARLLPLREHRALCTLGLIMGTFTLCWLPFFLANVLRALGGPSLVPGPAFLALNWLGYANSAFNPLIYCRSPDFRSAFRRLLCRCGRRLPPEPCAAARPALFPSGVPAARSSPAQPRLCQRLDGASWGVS

[4] = target: T1, Polyunsaturated fatty acid lipoxygenase ALOX15 (Oryctolagus cuniculus, UniProt P12530); test: biochemical; assay type: tissue-based, Reticulocytes; conditions: reticulocytes;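 further: inhibition of 15-lipoxygenase enzyme activity measured with linoleic acid as the substrate; in other assays of this panel Not Active means under 50% inhibition at 10 µM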
T1 sequence (P12530 whole entry): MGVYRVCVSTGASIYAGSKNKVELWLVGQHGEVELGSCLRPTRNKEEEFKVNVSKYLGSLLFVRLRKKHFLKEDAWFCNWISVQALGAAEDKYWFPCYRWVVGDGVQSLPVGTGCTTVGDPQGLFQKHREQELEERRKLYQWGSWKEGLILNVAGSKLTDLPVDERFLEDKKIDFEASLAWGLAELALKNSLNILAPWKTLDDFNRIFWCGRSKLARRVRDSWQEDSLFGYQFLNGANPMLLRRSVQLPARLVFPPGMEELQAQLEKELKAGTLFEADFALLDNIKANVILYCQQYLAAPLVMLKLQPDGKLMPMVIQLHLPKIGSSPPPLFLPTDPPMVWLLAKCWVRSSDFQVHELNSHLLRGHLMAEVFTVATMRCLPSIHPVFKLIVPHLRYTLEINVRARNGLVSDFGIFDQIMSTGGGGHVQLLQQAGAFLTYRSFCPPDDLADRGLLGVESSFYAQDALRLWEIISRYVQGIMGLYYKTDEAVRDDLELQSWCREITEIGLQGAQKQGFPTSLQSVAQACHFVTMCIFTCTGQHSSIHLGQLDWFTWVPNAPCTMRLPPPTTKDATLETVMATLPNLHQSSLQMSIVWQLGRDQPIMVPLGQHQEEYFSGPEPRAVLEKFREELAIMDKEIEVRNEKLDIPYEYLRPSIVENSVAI

[5] = target: Sodium-dependent dopamine transporter (Homo sapiens, UniProt Q01959); test: DRUGMATRIX: Dopamine Transporter radioligand binding (ligand: [125I] RTI-55); assay type: cell membranes, CHO-K1, Membrane; conditions: cho-k1; Not Active = under 50% inhibition at 10 µM
Chain of Sodium-dependent dopamine transporter (Q01959 whole entry): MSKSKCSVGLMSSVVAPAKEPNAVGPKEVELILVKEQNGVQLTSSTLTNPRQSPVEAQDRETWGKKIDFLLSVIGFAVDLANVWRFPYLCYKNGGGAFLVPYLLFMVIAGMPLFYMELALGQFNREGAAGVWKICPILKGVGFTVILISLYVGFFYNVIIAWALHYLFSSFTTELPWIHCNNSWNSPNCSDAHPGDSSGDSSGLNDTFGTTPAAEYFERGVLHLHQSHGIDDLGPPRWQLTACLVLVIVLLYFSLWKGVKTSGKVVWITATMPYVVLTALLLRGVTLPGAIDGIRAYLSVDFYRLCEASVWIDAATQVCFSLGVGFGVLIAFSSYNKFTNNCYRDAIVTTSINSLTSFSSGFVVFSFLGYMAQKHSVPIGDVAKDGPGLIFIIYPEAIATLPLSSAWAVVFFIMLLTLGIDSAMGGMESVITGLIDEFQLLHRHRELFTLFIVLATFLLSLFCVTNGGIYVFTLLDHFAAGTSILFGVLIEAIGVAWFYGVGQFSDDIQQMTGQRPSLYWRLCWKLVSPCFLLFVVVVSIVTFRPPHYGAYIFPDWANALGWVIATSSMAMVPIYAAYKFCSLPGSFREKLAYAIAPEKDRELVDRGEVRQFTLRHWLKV

[6] = target: Delta-type opioid receptor (Homo sapiens, UniProt P41143); assay type: cell membranes, HEK293, Membrane; conditions: hek293; further: in other assays of this panel Not Active means under 50% inhibition at 10 µM
Chain of Delta-type opioid receptor (P41143 whole entry): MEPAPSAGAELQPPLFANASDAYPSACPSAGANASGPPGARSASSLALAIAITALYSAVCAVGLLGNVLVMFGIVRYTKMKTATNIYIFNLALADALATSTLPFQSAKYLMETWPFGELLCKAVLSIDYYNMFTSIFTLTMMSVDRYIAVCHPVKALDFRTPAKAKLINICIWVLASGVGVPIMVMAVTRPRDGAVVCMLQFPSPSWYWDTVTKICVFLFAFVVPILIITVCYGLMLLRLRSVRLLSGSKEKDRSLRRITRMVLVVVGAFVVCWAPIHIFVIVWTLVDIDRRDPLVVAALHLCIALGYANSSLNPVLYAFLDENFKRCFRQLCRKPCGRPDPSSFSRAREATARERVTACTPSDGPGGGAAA

CC(=O)O[C@@]12CO[C@@H]1C[C@H](O)[C@@]1(C)C(=O)[C@H](O)C3=C(C)[C@@H](OC(=O)[C@H](O)[C@@H](NC(=O)OC(C)(C)C)c4ccccc4)C[C@@](O)([C@@H](OC(=O)c4ccccc4)[C@H]21)C3(C)C.O.O.O [DOCETAXEL]
Not Active: IC50 [1] | Ki [1] | IC50 [2] | IC50 [3] | IC50 [4] | IC50 [5] | IC50 [6]

N=C(N)NCCN1CCCCCCC1 [GUANETHIDINE]
Not Active: IC50 [1] | Ki [1] | IC50 [2] | IC50 [3] | IC50 [4] | IC50 [5] | IC50 [6]

CNCCc1ccccn1 [BETAHISTINE]
Not Active: IC50 [1] | Ki [1] | IC50 [2] | IC50 [3] | IC50 [4] | IC50 [5] | IC50 [6]

Clc1cccc(Cl)c1NC1=NCCN1 [CLONIDINE]
Not Active: IC50 [1] | Ki [1] | IC50 [2] | IC50 [3] | IC50 [4] | IC50 [5] | IC50 [6]

C[C@H](CS)C(=O)N1CCC[C@H]1C(=O)O [CAPTOPRIL]
Not Active: IC50 [1] | Ki [1] | IC50 [2] | IC50 [3] | IC50 [4] | IC50 [5] | IC50 [6]

CC(C)(Oc1ccc(Cl)cc1)C(=O)O [CLOFIBRIC ACID]
Not Active: IC50 [1] | Ki [1] | IC50 [2] | IC50 [3] | IC50 [4] | IC50 [5] | IC50 [6]

OC(Cn1cncn1)(Cn1cncn1)c1ccc(F)cc1F [FLUCONAZOLE]
Not Active: IC50 [1] | Ki [1] | IC50 [2] | IC50 [3] | IC50 [4] | IC50 [5] | IC50 [6]

O=C1CC[C@@H](N2C(=O)c3ccccc3C2=O)C(=O)N1
Not Active: IC50 [1] | Ki [1] | IC50 [2] | IC50 [3] | IC50 [4] | IC50 [5] | IC50 [6]
